Results taken from patent publication US8841319B2, “Use of 3-(indolyl)- or 3-(azaindolyl)-4-arylmaleimide derivatives in leukemia management” (Johannes Gutenberg-Universitat Mainz, priority 2007, dated 2014).

Tests used:
[1] = test system: murine 32D-FLT3-ITD cells; assay: Apoptosis assay by cell cycle analysis (sub-G1 fraction) in 32D-FLT3-ITD cells; assay type: cell-based; conditions: 48 h incubation
Description: A human FLT3-ITD construct, subcloned into the pAL expression vector under control of the 5′ long terminal repeat (LTR) of the Moloney murine sarcoma virus (MoMSV) and the plasmid pMAM/BSD were used as previously described (Mizuki, M., Schwable, J., Steur, C., Choudhary, C., Agrawal, S., Sargin, B., Steffen, B., Matsumura, I., Kanakura, Y., Bohmer, F. D., Muller-Tidow, C., Berdel, W. E. & Serve, H. (2003) Suppression of myeloid transcription factors and induction of STAT response genes by AML-specific FLT3 mutations. Blood, 101, 3164-3173). The N676K point mutation was introduced into this FLT3-ITD construct (Medigenomix Martinsried, Germany). […]
The induction of apoptosis in murine 32D-FLT3-ITD cells measured by sub-G1-fraction in cell cycle analysis upon 48 h incubation with two 3-(indolyl)- and 3-(azaindolyl)-4-phenylmaleimide derivatives (DHF125 and DHF150) was evaluated.

FLT3-WT cells = assay: Apoptosis assay by cell cycle analysis (sub-G1 fraction) in FLT3-WT cells; assay type: cell-based; conditions: up to 10 μM, 48 h incubation
STAT5, ERK and AKT = assay: Western blotting of downstream kinase targets; assay type: cell-based
Procedure: 2×10^6 cells were incubated in the presence of various inhibitor concentrations alone and in combination for 1 hour at 37° C. Preparation of cellular lysates was performed as described previously (Kindler, T., Breitenbuecher, F., Kasper, S., Estey, E., Giles, F., Feldman, E., Ehninger, G., Schiller, G., Klimek, V., Nimer, S. D., Gratwohl, A., Choudhary, C. R., Mueller-Tidow, C., Serve, H., Gschaidmeier, H., Cohen, P. S., Huber, C. & Fischer, T. (2005) Identification of a novel activating mutation (Y842C) within the activation loop of FLT3 in patients with acute myeloid leukemia (AML). Blood, 105, 335-340). Protein lysates were subjected to SDS polyacrylamid gel electrophoresis (SDS-PAGE) and blotted onto nitrocellulose membrane (Amersham, Freiburg, Germany) as previously described (Kindler, et al 2003). The following antibodies were used: anti-phospho-FLT3, anti-phospho-STAT5 (pTyr694/699), anti-phospho AKT (pSer473), anti-phospho ERK (pThr202/pTyr204) (all Cell Signaling Technology™, Frankfurt, Germany), anti-FLT3, anti-AKT and anti-STAT5 (Santa Cruz, Heidelberg, Germany), and anti-β-Actin (ICN). Densitometric analysis was performed using the program Gel-Pro Analyzer®.

FLT3-kinase = molecular target: T1, FLT3-kinase (Homo sapiens, UniProt P36888); assay: FLT3-kinase assay at two ATP concentrations; assay type: biochemical
T1 sequence (P36888 27-993): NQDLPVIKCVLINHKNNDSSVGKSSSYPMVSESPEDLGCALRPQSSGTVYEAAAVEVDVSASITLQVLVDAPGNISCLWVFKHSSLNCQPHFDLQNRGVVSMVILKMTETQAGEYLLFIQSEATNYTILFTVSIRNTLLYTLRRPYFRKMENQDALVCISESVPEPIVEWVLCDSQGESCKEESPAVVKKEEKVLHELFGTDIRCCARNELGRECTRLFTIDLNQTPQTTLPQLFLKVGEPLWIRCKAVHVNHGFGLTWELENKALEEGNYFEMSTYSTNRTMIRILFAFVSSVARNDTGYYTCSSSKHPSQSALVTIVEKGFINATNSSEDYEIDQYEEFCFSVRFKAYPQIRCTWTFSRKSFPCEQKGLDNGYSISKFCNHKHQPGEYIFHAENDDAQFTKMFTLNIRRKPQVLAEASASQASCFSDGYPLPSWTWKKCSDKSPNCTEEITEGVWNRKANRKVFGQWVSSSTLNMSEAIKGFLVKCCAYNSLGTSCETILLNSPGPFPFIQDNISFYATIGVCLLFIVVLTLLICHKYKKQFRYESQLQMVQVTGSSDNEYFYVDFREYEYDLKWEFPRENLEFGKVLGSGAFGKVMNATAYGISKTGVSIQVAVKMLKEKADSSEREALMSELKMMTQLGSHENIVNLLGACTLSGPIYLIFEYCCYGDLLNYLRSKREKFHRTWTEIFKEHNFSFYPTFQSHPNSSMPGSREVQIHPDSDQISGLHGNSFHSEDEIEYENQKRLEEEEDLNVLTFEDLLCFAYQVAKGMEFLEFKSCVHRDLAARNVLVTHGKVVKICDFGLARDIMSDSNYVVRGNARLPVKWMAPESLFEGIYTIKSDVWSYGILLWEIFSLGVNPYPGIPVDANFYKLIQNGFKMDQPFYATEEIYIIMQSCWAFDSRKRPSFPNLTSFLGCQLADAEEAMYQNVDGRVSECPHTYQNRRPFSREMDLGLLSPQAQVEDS

FLT3 = assay: Immunoprecipitation of FLT3 (anti-FLT3 and anti-P-Tyr); assay type: cell-based
FLT3-ITD-positive cells = assay: Drug combination with chemotherapy, Chou-Talalay plot (CompuSyn); assay type: cell-based
Procedure: The chemotherapeutic agents cytarabine and daunorubicine were dissolved and diluted in aqua dest. Equivalent doses of DMSO were added when used for combination treatment.
For definition of synergism and/or antagonism in drug combinations we used the CompuSyn™ software (Chou, T C and Martin, N; ComboSyn, Inc. Paramus, N. J., USA) as previously described (Chou, T. C. (2006) Theoretical basis, experimental design, and computerized simulation of synergism and antagonism in drug combination studies. Pharmacol Rev, 58, 621-681).

[2] = test system: primary AML blasts harboring the FLT3-ITD mutation; assay: Apoptosis (sub-G1 fraction, FACS) in primary AML blasts; assay type: cell-based, human; conditions: primary AML blasts with FLT3-ITD mutation, 72 h incubation
Procedure: Transfected murine 32D cells (1×10^5 cells/well) were incubated in 2 ml RPMI medium supplemented with 10% FCS with different inhibitor concentrations for 48 hours at 37° C. Primary human cells (2×10^5 cells/well) were incubated for 72 hours at 37° C. After incubation, cells were washed with ice cold PBS, pelleted and mixed with 300 μl of propidium-iodide-buffer (containing 50 μg/ml PI in 0.1% sodium citrate plus 0.1% Triton X 100, Sigma) for 30 minutes at 4° C. Cell cycle analysis was performed as described previously (Nicoletti, I., Migliorati, G., Pagliacci, M. C., Grignani, F. & Riccardi, C. (1991) A rapid and simple method for measuring thymocyte apoptosis by propidium iodide staining and flow cytometry. J Immunol Methods, 139, 271-279) using a FACSCanto™ flow cytometer (BD Biosciences, Heidelberg, Germany).
BM- and PB-samples with heparin as anticoagulant were obtained from AML patients or donors with no evidence of malignant bone marrow infiltration after informed consent in a study approved by the local ethics committee. Mononuclear cells (MNC) were isolated immediately by means of Ficoll-Hypaque (Seromed, Berlin, Germany) density gradient centrifugation. […]
Primary AML blasts at primary diagnosis were incubated for 72 h with both 3-(indolyl)- and 3-(azaindolyl)-4-phenylmaleimide derivatives. Induction of apoptosis was measured by sub-G1-fraction in FACS analysis. […]

[3] = test system: non-malignant bone marrow cells; assay: Colony assay of non-malignant bone marrow cells; conditions: day 10
Procedure: Bone-marrow MNCs were isolated as indicated above. Bone marrow samples were obtained from patients in CR after NHL or AML treatment or without evidence of any malignant bone marrow infiltration. 1×10^5 cells were plated in 1.1 ml Methocult™ (GF H4534) “Complete” Methylcellulose Medium with recombinant cytokines (StemCell Technologies, Vancouver, Canada) and incubated for 10 days at 37° C. in duplicate. Colony formation was counted on day 10.

SMILES | sub-G1-cell fraction (induction of apoptosis) [1] | induction of apoptosis (FLT3-WT cells) | phosphorylation of downstream-targets STAT5, ERK and AKT (STAT5, ERK and AKT) | inhibition of FLT3-kinase (FLT3-kinase) | phosphorylation of FLT3 (FLT3) | effect in combination with cytarabine (FLT3-ITD-positive cells) | effect in combination with daunorubicine (FLT3-ITD-positive cells) | induction of apoptosis, percentage of apoptotic cells on top of ground apoptosis [2] | colony formation ([3]; 10 μM) | reduction in colony formation ([3]; up to 5 μM)
COc1cc(C2=C(c3c[nH]c4ccccc34)C(=O)NC2=O)cc(OC)c1OC [DHF125, 3-(Indole-3-yl)-4-(3,4,5-trimethoxyphenyl)-1H-pyrrole-2,5-dione] | statistically very significant dose-dependent increase | No significant induction of apoptosis | dephosphorylation | ATP competitive inhibition | dephosphorylation | synergistic effects | synergistic effects | 10-17% | – | –
COc1cc(C2=C(c3c[nH]c4ncccc34)C(=O)NC2=O)cc(OC)c1OC [DHF150, 3-(7-Azaindol-3-yl)-4-(3,4,5-trimethoxyphenyl)-1H-pyrrole-2,5-dione] | statistically very significant dose-dependent increase | No significant induction of apoptosis | dephosphorylation | ATP competitive inhibition | dephosphorylation | synergistic effects | synergistic effects | 17-28% | reduced to a minimum | no significant reduction
